# Measurements published in patent US7181884B2, “Materials and methods for controlling pests” (University of Florida Research Foundation, Inc., priority 2001, dated 2007).
# Read-outs that look alike come from different tables or passages of the source.
# Experiments:
# [1] = test system: Aedes aegypti larvae
# Source text: Another experiment assessed the specificity of L-methionine compared to L-proline on Aedes aegypti survival. Mosquito larvae (third or fourth instar; N=240) were placed in water containing various concentrations of L-proline or L-methionine, and fed ad libitum with commercial dried fish food applied to the water.
# [2] = test system: Manduca sexta larvae; conditions: 10% wt./wt. of dry diet components
# Description: The effect of feeding L-methionine to Manduca sexta larvae as they progressed from the first through fifth instar stages was determined. Colonies of hornworms are commonly reared for research by well-accepted techniques that account for environmental conditions such as feed availability, daily photoperiod, temperature, etc. The caterpillars were obtained from Carolina Biological Supply Co. and were placed in a lighted 27° C. incubator and fed hydrated reconstituted Dry Tobacco Hornworm Medium Stock No. L-908D (Carolina Biological Supply Co., Burlington, N.C.) supplemented with or without (control) L-methionine supplementation.
# The effect of feeding L-methionine to Manduca sexta larvae as they progressed from the first through fifth instar stages was studied. In one study, the caterpillars were placed in a 27° C. incubator (photoperiod 16 hours light, 8 hours dark; relative humidity 60%) and fed a hydrated standard defined hornworm diet without (control) or with L-methionine supplementation (10% wt./wt. of dry components).
# [3] = test system: Manduca sexta neonate larvae; conditions: all test doses, sprayed excised eggplant leaves, water vehicle
# Source text: (§1) Another study evaluated the Manduca larvae mortality on excised leaves of host plant (eggplant; Solanum melongena) that were sprayed with various concentrations of L-methionine dissolved in deionized water. Manduca sexta neonate larvae were initially reared on eggplants in Plexiglas cylinders. Larvae (total N=64/treatment) were exposed to eggplant leaves that were sprayed (then dried) with aqueous solutions of methionine.
# [4] = test system: eggplant; Solanum melongena; conditions: in vivo
# Source text: as §1
# [5] = test system: Manduca sexta larvae; conditions: Silwet-L77
# Description: In one study, leaves of eggplant (Solanum melongena) were sprayed with a deionized water/Silwet-L77 solution containing varying concentrations of methionine, then allowed to dry. The Silwet-L77 was prepared according to the manufacture's instructions. Manduca sexta larvae (N=400; 80 per methionine dose) were then exposed to the eggplant leaves during 10 days, and surviving larvae were counted daily.
# [6] = test system: Leptinotarsa decemlineata larvae; conditions: whole eggplants sprayed, water vehicle
# Source text: Host growing whole eggplants in environmental growth chanmbers were sprayed with deionized water containing varying concentrations of methionine, then dried. Leptinotarsa decemlineata larvae (N=160 per group) were exposed to the leaves, and surviving larvae were counted daily.
# [7] = test system: Colorado potato beetle, Leptinotarsa decemlineata; conditions: field
# Description: Eggplant (Solanum melongena) growing in an outside test field were treated with various concentrations of aqueous L-methionine solutions applied to the leaves, which were allowed to dry. Then larvae of Colorado potato beetle, Leptinotarsa decemlineata, were applied to the plants, and surviving larvae were counted daily.
# [8] = test system: eggplant (Solanum melongena); conditions: in vivo
# Source text: Host eggplant (Solanum melongena) growing in fields were sprayed with deionized water containing varying concentrations of methionine, then dried.
# [9] = test system: CAATCH1; conditions: CAATCH1 expressed in cell membranes; cited from earlier work
Structure (SMILES),"effect on larvae survival compared to 0% methionine control ([1]; all test days, P≧0.05)",larval development [2],larvae killed ([2]; within 3 days) [%],larvae dead [3] [%],plant viability [4],time to reach complete mortality ([5]; leaves treated with 0.31% methionine) [days],time to reach complete mortality ([5]; leaves treated with 0.45% (w/w) methionine) [days],methionine concentration at which complete mortality was attained [6] [%],efficacy of lowest concentration attempted ([7]; 0.06% (w/w on leaves)),larvae mortality versus concentration ([7]; various concentrations),fruit yield mean numbers or mean weights [8],"larvae killed ([1]; 0.7% methionine in water, day 3) [%]",LD50 ([1]; day 2) [% methionine],LD50 ([1]; day 3) [% methionine],CAATCH1-associated voltage-dependent amino acid-elicited steady state inward cation currents [9]
"O=C(O)[C@@H]1CCCN1 [L-proline, reference compound]",no effect,,,,,,,,,,,,,,
CSCC[C@H](N)C(=O)O [L-methionine],,prevented all the caterpillars from advancing in development,100,100,plant viability was not affected,4,2,≤ 0.15,efficacious,increased in a dose-dependent manner,not significantly different from control,100,~0.5,~0.3,blocked
